Measurements as given in PMC12235045, “Structural insights into allosteric inhibition of HRI kinase by heme binding via HDX-MS” (Biochemical Journal, 2025).
Like-named read-outs stand apart in the source and are kept apart here.

Assays:
[1] = molecular target: T1, Heme-regulated inhibitor (HRI) (Homo sapiens, UniProt Q9BQI3); assay: ADP-GLO kinase assay with eIF2α substrate; supported by nanoDSF (+[…] °C at […]) and Phos-tag gels; format: biochemical
T1 construct: gene EIF2AK1; N-terminally His-tagged human HRI, dephosphorylated, from E. coli

[2] = molecular target: T1, Heme-regulated inhibitor (HRI); assay: as above; format: biochemical; remark: listed apart in the source

T1 sequence (Q9BQI3 whole entry): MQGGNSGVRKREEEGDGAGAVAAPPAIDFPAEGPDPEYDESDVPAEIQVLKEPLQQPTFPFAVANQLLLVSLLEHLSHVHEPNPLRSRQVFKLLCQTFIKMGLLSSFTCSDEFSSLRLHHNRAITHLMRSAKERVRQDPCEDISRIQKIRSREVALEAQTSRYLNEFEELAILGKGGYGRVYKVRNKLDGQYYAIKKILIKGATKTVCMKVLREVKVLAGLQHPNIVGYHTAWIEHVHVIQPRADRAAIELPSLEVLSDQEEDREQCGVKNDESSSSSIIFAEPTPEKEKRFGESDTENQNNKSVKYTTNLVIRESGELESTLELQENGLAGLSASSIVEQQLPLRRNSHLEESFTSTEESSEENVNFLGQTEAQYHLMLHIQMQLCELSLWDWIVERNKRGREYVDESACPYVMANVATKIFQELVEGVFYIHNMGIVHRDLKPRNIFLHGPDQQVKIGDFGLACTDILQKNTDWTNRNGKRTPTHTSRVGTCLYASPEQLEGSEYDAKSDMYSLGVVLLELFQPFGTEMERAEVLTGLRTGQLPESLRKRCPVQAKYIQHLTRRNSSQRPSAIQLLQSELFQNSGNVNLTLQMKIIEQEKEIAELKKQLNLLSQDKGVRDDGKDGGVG

SMILES | IC50 [1] | IC50 [2]
COC(=O)N[C@@H](C)CNc1nccc(-c2cn(C(C)C)nc2-c2cc(Cl)cc(NS(C)(=O)=O)c2F)n1 [encorafenib] | 1070 nM | 
COc1ncc(Cl)cc1S(=O)(=O)Nc1ccc(F)c(C#Cc2cnc(N)nc2)c1F [GCN2iB] |  | 620 nM
